Reference: patent US20240199587A1, “HETEROCYCLIC COMPOUNDS” (Hoffmann-La Roche Inc., priority 2021, published 2024)

Each molecule was assayed against T1, MAGL (Homo sapiens, UniProt Q99685) (assay: 2-AG assay (MAGL inhibitory activity, hydrolysis of 2-arachidonoylglycerol to arachidonic acid followed by mass spectrometry)). Conditions: 8 μM 2-arachidonoylglycerol, 15 min pre-incubation, 30 min incubation at RT, RapidFire MS readout.
T1 sequence (Q99685 1-303): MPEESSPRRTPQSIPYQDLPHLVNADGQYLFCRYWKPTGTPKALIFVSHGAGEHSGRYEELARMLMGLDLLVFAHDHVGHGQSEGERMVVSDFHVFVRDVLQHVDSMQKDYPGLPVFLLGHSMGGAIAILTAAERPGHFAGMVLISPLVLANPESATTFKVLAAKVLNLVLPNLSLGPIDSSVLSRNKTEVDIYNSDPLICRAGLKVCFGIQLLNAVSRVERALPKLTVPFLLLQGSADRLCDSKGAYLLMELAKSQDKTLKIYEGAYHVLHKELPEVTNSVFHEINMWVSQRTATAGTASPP
Type: biochemical
In short: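 Human MAGL ([…] final) pre-incubated 15 min at RT with compound in 50 mM TRIS, 1 mM EDTA, 0.01% Tween-20, 2.5% DMSO; 8 μM 2-AG then added for 30 min at RT. Acetonitrile quench with d8-arachidonic acid; arachidonic acid measured by RapidFire SPE–MS/MS, activity from arachidonic acid/d8 ratio.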
`O=C(N1CC(Oc2ccc(C3CC3)nc2F)C1)N1CC2(CC(n3cnc(C4CC4)n3)C2)C1` [Example 208, [3-[(6-cyclopropyl-2-fluoro-3-pyridyl)oxy]azetidin-1-yl]-[6-(3-cyclopropyl-1,2,4-triazol-1-yl)-2-azaspiro[3.3]heptan-2-yl]methanone] was tested, and the IC50 was 1.1 nM. Work on `COc1ccc(S(=O)(=O)N2CC3(CN(C(=O)N4CC5(CC(n6cnc(C7CC7)n6)C5)C4)C3)C2)cc1` [Example 282, [6-(3-cyclopropyl-1,2,4-triazol-1-yl)-2-azaspiro[3.3]heptan-2-yl]-[2-(4-methoxyphenyl)sulfonyl-2,6-diazaspiro[3.3]heptan-6-yl]methanone] yielded an IC50 of 44.6 nM. Molecule `O=C(N1CC2(CC(n3cnc(C4(O)CC4)n3)C2)C1)N1CC2(CC[C@@H](Cc3ccc(S(=O)(=O)C(F)(F)F)cc3)C2)C1` [Example 362, [6-[3-(1-hydroxycyclopropyl)-1,2,4-triazol-1-yl]-2-azaspiro[3.3]heptan-2-yl]-[(6S)-6-[[4-(trifluoromethylsulfonyl)phenyl]methyl]-2-azaspiro[3.4]octan-2-yl]methanone] has an IC50 of 1.73 nM. Molecule `O=C(N1CC2(CC(n3cnc(C4CC4)n3)C2)C1)N1CC2(CN(Cc3ccc(C(F)(F)F)cn3)C2)C1` [Example 232] has an IC50 of 4.6 nM. For `O=C(N1CC2(CC(n3cnc(C4CC4)n3)C2)C1)N1CC2(CCN(Cc3cnc(C(F)(F)F)cn3)C2)C1` [Example 437], the IC50 was 6.37 nM. `Cc1cc(C(=O)N2CC3(CC(n4cnc(C5CC5)n4)C3)C2)nnc1OCC1(C(F)(F)F)CC1` [Example 32, [6-(3-cyclopropyl-1,2,4-triazol-1-yl)-2-azaspiro[3.3]heptan-2-yl]-[5-methyl-6-[[1-(trifluoromethyl)cyclo-propyl]methoxy]pyridazin-3-yl] methanone] was tested, and the IC50 was 2820 nM. `CC(C)(C)Cn1nncc1-c1ccc(C2CN(C(=O)N3CC4(CC(n5cncn5)C4)C3)C2)cc1` [Example 417, [3-[4-[3-(2,2-dimethylpropyl)triazol-4-yl]phenyl]azetidin-1-yl]-[6-(1,2,4-triazol-1-yl)-2-azaspiro[3.3]heptan-2-yl]methanone] showed an IC50 of 359 nM. Molecule `O=C(N1CC(c2ccc(N3CC[C@H](C(F)(F)F)C3)nc2)C1)N1CC2(CC(n3cnc(C4(O)CC4)n3)C2)C1` [Example 397, [6-[3-(1-hydroxycyclopropyl)-1,2,4-triazol-1-yl]-2-azaspiro[3.3]heptan-2-yl]-[3-[6-[(3S)-3-(trifluoromethyl)pyrrolidin-1-yl]-3-pyridyl]azetidin-1-yl]methanone] has an IC50 of 14.4 nM. `O=C(N1CC(OCc2ccc(C(F)(F)F)cc2F)C1)N1CC2(CC(n3cnc(C4CC4)c3)C2)C1` [Example 102, [6-(4-cyclopropylimidazol-1-yl)-2-azaspiro[3.3]heptan-2-yl]-[3-[[2-fluoro-4-(trifluoromethyl)phenyl]methoxy]azetidin-1-yl]methanone] showed an IC50 of 51.4 nM. `COc1cnn(C2CC3(C2)CN(C(=O)c2ccc(-c4noc(C(C)(C)C)n4)cc2)C3)c1` [Example 11, [4-(5-tert-butyl-1,2,4-oxadiazol-3-yl)phenyl]-[6-(4-methoxypyrazol-1-yl)-2-azaspiro[3.3]heptan-2-yl]methanone] gave an IC50 of 1290 nM. `COc1ncccc1S(=O)(=O)N1CC2(CN(C(=O)N3CC4(CC(n5cnc(C6CC6)n5)C4)C3)C2)C1` [Example 309, [6-(3-cyclopropyl-1,2,4-triazol-1-yl)-2-azaspiro[3.3]heptan-2-yl]-[2-[(2-methoxy-3-pyridyl)sulfonyl]-2,6-diazaspiro[3.3]heptan-6-yl]methanone] showed an IC50 of 148 nM. `O=C(N1CC2(CC(Cc3ncc(F)cc3F)C2)C1)N1CC2(CC(n3cnc(C4CC4)n3)C2)C1` [Example 199, [6-(3-cyclopropyl-1,2,4-triazol-1-yl)-2-azaspiro[3.3]heptan-2-yl]-[6-[(3,5-difluoro-2-pyridyl)methyl]-2-azaspiro[3.3]heptan-2-yl]methanone] was tested, and the IC50 was 0.5 nM.
